Data taken from patent US20250250227A1, “AMINO LIPID COMPOUND, PREPARATION METHOD THEREFOR, COMPOSITION THEREOF AND USE THEREOF” (SHENZHEN SHENXIN BIOTECHNOLOGY CO., LTD., priority 2022, published 2025).

Columns and labels:
[1] = Preparation and characterisation of mRNA-encapsulating lipid nanoparticle (encapsulation efficiency, particle size); format: physicochemical; details: LNP encapsulating Fluc mRNA; Lipid:DSPC:CHO-HP:M-DMG-2000 48:10:40.5:1.5
Summary of the method: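 Fluc mRNA in sodium acetate buffer mixed with ethanolic amino lipid:DSPC:CHO-HP:M-DMG-2000 (48:10:40.5:1.5 molar) by microfluidics, mRNA:lipid mass ratio 1:10, then dialysed 2 h against Tris-8% sucrose and 0.22 μm filtered. Final mRNA 0.2 g/L; particle size and encapsulation efficiency measured.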

Female BALB/c mice [2] = assay: IFN-γ Elispot cellular immunity test, spleen lymphocytes of mice immunized with IN002.5.1 mRNA LNP; format: in vivo; details: 50 μL IM, spleen on 7th day after immunization, FIG. 2-4
Female BALB/c mice [3] = assay: Humoral immunity test for total binding IgG antibody (ELISA, SARS-COV-2 antigen protein) in serum of immunized mice; format: in vivo; details: IN002.5.1 mRNA LNP, 50 μL IM, serum on 14th day after immunization; FIG. 5-6

SMILES | Encapsulation efficiency [1] [%] | Cellular immunity effect (IFN-γ Elispot) compared to ALC0315 (Female BALB/c mice [2]) | Humoral immunity effect (IgG titer) compared to ALC0315 (Female BALB/c mice [3])
CCCCCCC(CCCCCC)OC(=O)CCCCCCCCC(CCCCCCCCC(=O)OC(CCCCCC)CCCCCC)OC(=O)N(CCCN(C)C)CCC(=O)OCCCC [Compound 264] | 94.12 | better cellular immunity effect | better humoral immunity effect
CCCCCCCOC(=O)CCN(CCCN(C)C)C(=O)OC(CCCCCCCCC(=O)OC(CCCCCC)CCCCCC)CCCCCCCCC(=O)OC(CCCCCC)CCCCCC [Compound 267] | 93.13 | better cellular immunity effect | –
CCCCCCC(CCCCCC)OC(=O)CCCCCCCCC(CCCCCCCCC(=O)OC(CCCCCC)CCCCCC)OC(=O)N(CCCN(C)C)CC(=O)OCCCC [Compound 270] | 93.46 | better cellular immunity effect | better humoral immunity effect
CCCCCCOC(=O)CN(CCCN(C)C)C(=O)OC(CCCCCCCCC(=O)OC(CCCCCC)CCCCCC)CCCCCCCCC(=O)OC(CCCCCC)CCCCCC [Compound 272] | 93.96 | better cellular immunity effect | –
CCCCCCCOC(=O)CN(CCCN(C)C)C(=O)OC(CCCCCCCCC(=O)OC(CCCCCC)CCCCCC)CCCCCCCCC(=O)OC(CCCCCC)CCCCCC [Compound 273] | 87.42 | better cellular immunity effect | better humoral immunity effect
